This is an account of results in patent US9670210B2, “Cyclopropylamines as LSD1 inhibitors” (Incyte Corporation, priority 2014, dated 2017).

This assay has as its target LSD-1 enzyme (Homo sapiens (Human), UniProt O60341).

Method: LSD1 Histone Demethylase Biochemical Assay
LANCE LSD1/KDM1A demethylase assay-10 μL of 1 nM LSD-1 enzyme (ENZO BML-SE544-0050) in the assay buffer (50 mM Tris, pH 7.5, 0.01% Tween-20, 25 mM NaCl, 5 mM DTT) were preincubated for 1 hour at 25° C. with 0.8 μL compound/DMSO dotted in black 384 well polystyrene plates. […] After stopping the reactions plates were incubated for 30 minutes and read on a PHERAstar FS plate reader (BMG Labtech).

What is called IC50 is the concentration that inhibits the measured activity by half. The compound `COCC1(CN[C@@H]2C[C@H]2c2ccccc2)CCN(C(=O)c2cn(C)cn2)CC1` [Example 39, (1R,2S)—N-({4-(methoxymethyl)-1-[(1-methyl-1H-imidazol-4-yl)carbonyl]piperidin-4-yl}methyl)-2-phenylcyclopropanamine] had an IC50 of less than 100 nM.
`O=C(O)C1(CN2CCC(CN[C@@H]3C[C@H]3c3ccccc3)(Cc3ccc(F)cc3)CC2)CCC1` [Example 32, 1-{[4-(4-fluorobenzyl)-4-({[(1R,2S)-2-phenylcyclopropyl]amino}methyl)piperidin-1-yl]methyl}cyclobutanecarboxylic acid] displayed a 50% inhibitory concentration (IC50) of less than 100 nM.
Then `O=C(O)C1(CN2CCC(CN[C@@H]3C[C@H]3c3ccccc3)(COCC3CCC3)CC2)CCC1` [Example 93, 1-{[4-[(cyclobutylmethoxy)methyl]-4-({[(1R,2S)-2-phenylcyclopropyl]amino}methyl)piperidin-1-yl]methyl}cyclobutanecarboxylic acid], with less than 100 nM.
With `N#Cc1ccc(CN2CC(CN[C@@H]3C[C@H]3c3ccccc3)C2)cc1` (relative stereo) [Example 6, 4-[(3-{[(trans-2-Phenylcyclopropyl)amino]methyl}azetidin-1-yl)methyl]benzonitrile], the IC50 is less than 100 nM.
Then `COCC1(CN[C@@H]2C[C@H]2c2ccccc2)CCN(C(=O)[C@H]2CC[C@@H](CO)CC2)CC1` [Example 101, (cis-4-{[4-(methoxymethyl)-4-({[(1R,2S)-2-phenylcyclopropyl]amino}methyl)piperidin-1-yl]carbonyl}cyclohexyl)methanol], with less than 100 nM.
Then `N#Cc1ccccc1OCC1(CN[C@@H]2C[C@H]2c2ccccc2)CCN(CC2(C(=O)O)CC2)CC1` [Example 79, 1-{[4-[(2-cyanophenoxy)methyl]-4-({[(1R,2S)-2-phenylcyclopropyl]amino}methyl)piperidin-1-yl]methyl}cyclopropanecarboxylic acid], with less than 100 nM; and `N#Cc1cccc(C(=O)N2CC(CN[C@@H]3C[C@H]3c3ccccc3)C2)c1` (relative stereo) [Example 26, 3-[(3-{[(trans-2-Phenylcyclopropyl)amino]methyl}azetidin-1-yl)carbonyl]benzonitrile], with less than 100 nM.
Compound `COCC1(CN[C@@H]2C[C@H]2c2ccccc2)CCN(C(=O)[C@H]2CC[C@H](CO)CC2)CC1` [Example 100, (trans-4-{[4-(methoxymethyl)-4-({[(1R,2S)-2-phenylcyclopropyl]amino}methyl)piperidin-1-yl]carbonyl}cyclohexyl)methanol] gave a half-maximal inhibitory concentration (IC50) of less than 100 nM.
For the compound `COCC1(CN[C@@H]2C[C@H]2c2ccccc2)CCN(C(=O)c2ccn(CCO)n2)CC1` [Example 108, 2-(3-{[4-(methoxymethyl)-4-({[(1R,2S)-2-phenylcyclopropyl]amino}methyl)piperidin-1-yl]carbonyl}-1H-pyrazol-1-yl)ethanol], the 50% inhibitory concentration (IC50) was less than 100 nM.
In the case of `COCC1(CN[C@@H]2C[C@H]2c2ccccc2)CCN(C(=O)N2CCN(C)CC2)CC1` [Example 43, (1R,2S)—N-({4-(methoxymethyl)-1-[(4-methylpiperazin-1-yl)carbonyl]piperidin-4-yl}methyl)-2-phenylcyclopropanamine], the half-inhibitory concentration (IC50) is less than 100 nM.
As for `COCC1(CN[C@@H]2C[C@H]2c2ccccc2)CCN(C(=O)[C@@H]2CCCN2C)CC1` [Example 38, (1R,2S)—N-[(4-(methoxymethyl)-1-{[(2S)-1-methylpyrrolidin-2-yl]carbonyl}piperidin-4-yl)methyl]-2-phenylcyclopropanamine], the figure is less than 100 nM.
For `O=C(N1CCC(O)(c2ccccc2)CC1)N1CC(CN[C@@H]2C[C@H]2c2ccccc2)C1` (relative stereo) [Example 17, 4-Phenyl-1-[(3-{[(trans-2-phenylcyclopropyl)amino]methyl}azetidin-1-yl)carbonyl]piperidin-4-ol], the IC50 was less than 100 nM.
As for `COCC1(CN[C@@H]2C[C@H]2c2ccccc2)CCN(S(=O)(=O)c2cnn(C)c2)CC1` [Example 114, (1R,2S)—N-({4-(methoxymethyl)-1-[(1-methyl-1H-pyrazol-4-yl)sulfonyl]piperidin-4-yl}methyl)-2-phenylcyclopropanamine], the figure is less than 100 nM; as for `COCC1(CNC2CC2c2ccc(OC)cc2)CCN(CC2(C(=O)O)CCC2)CC1` (centres unmarked) [Example 67, 1-{[4-(methoxymethyl)-4-({[2-(4-methoxyphenyl)cyclopropyl]amino}methyl)piperidin-1-yl]methyl}cyclobutanecarboxylic acid], less than 100 nM.
As for `CNC(=O)c1cccc(OCC2(CN[C@@H]3C[C@H]3c3ccccc3)CCN(CC3(C(=O)O)CC3)CC2)n1` [Example 91, 1-{[4-[({6-[(methylamino)carbonyl]pyridin-2-yl}oxy)methyl]-4-({[(1R,2S)-2-phenylcyclopropyl]amino}methyl)piperidin-1-yl]methyl}cyclopropanecarboxylic acid], the figure is less than 100 nM.
Compound `COCC1(CN[C@@H]2C[C@H]2c2ccccc2)CCN(C(=O)N2CCC[C@H](O)C2)CC1` [Example 110, (3S)-1-{[4-(methoxymethyl)-4-({[(1R,2S)-2-phenylcyclopropyl]amino}methyl)piperidin-1-yl]carbonyl}piperidin-3-ol] registered a 50% inhibitory concentration (IC50) of less than 100 nM.
Turning to `O=C(c1ccc(F)cc1)N1CC(CN[C@@H]2C[C@H]2c2ccccc2)C1` (relative stereo) [Example 28, N-{[1-(4-Fluorobenzoyl)azetidin-3-yl]methyl}-trans-2-phenylcyclopropanamine], the IC50 is less than 100 nM.
`COCC1(CN[C@@H]2C[C@H]2c2ccccc2)CCN(C(=O)c2cnn(CCC#N)c2)CC1` [Example 106, 3-(4-{[4-(methoxymethyl)-4-({[(1R,2S)-2-phenylcyclopropyl]amino}methyl)piperidin-1-yl]carbonyl}-1H-pyrazol-1-yl)propanenitrile] returned a half-maximal inhibitory concentration (IC50) of less than 100 nM.
The compound `N#Cc1cccc(OCC2(CN[C@@H]3C[C@H]3c3ccccc3)CCN(CC3(C(=O)O)CC3)CC2)c1` [Example 80, 1-{[4-[(3-cyanophenoxy)methyl]-4-({[(1R,2S)-2-phenylcyclopropyl]amino}methyl)piperidin-1-yl]methyl}cyclopropanecarboxylic acid] yielded a half-maximal inhibitory concentration (IC50) of less than 100 nM.
Regarding `N#Cc1cccc(CC2(CN[C@@H]3C[C@H]3c3ccccc3)CCN(CC3(C(=O)O)CCC3)CC2)c1` [Example 57, 1-{[4-(3-cyanobenzyl)-4-({[(1R,2S)-2-phenylcyclopropyl]amino}methyl)piperidin-1-yl]methyl}cyclobutanecarboxylic acid], the IC50 was less than 100 nM.
As for `COCC1(CNC2CC2c2ccccc2OC)CCN(CC2(C(=O)O)CCC2)CC1` (centres unmarked) [Example 66, 1-{[4-(methoxymethyl)-4-({[2-(2-methoxyphenyl)cyclopropyl]amino}methyl)piperidin-1-yl]methyl}cyclobutanecarboxylic acid], the figure is less than 100 nM; as for `COCC1(CN[C@@H]2C[C@H]2c2ccccc2)CCN(C(=O)N2CCC(O)CC2)CC1` [Example 112, 1-{[4-(methoxymethyl)-4-({[(1R,2S)-2-phenylcyclopropyl]amino}methyl)piperidin-1-yl]carbonyl}piperidin-4-ol], less than 100 nM.
For `COCC1(CN[C@@H]2C[C@H]2c2ccccc2)CCN(C(=O)C2CCN(C)CC2)CC1` [Example 41, (1R,2S)—N-({4-(methoxymethyl)-1-[(1-methylpiperidin-4-yl)carbonyl]piperidin-4-yl}methyl)-2-phenylcyclopropanamine], the IC50 was less than 100 nM.
